The results in this text go back to patent US11202821B2, “Glucose oxidase compositions” (VEGANUTRITECH LLP, priority 2016, dated 2021).

“And” between values parts separate entries of the source, which are not always exact repeats. Equal values may be shown once.

Data set [1] can be described thus: Glucose tolerance test on healthy volunteers. The class given is in vivo, human. From the text: The data is as provided under table 21 and reflects that the sweetener compositions of the present invention are safer to use even for healthy individuals as compared to artificial sweeteners.
Observations of glucose tolerance test on healthy volunteers were made after the consumption of the sweetener composition containing glucose oxidase enzyme, as per the embodiment of the present invention and in comparison, to known artificial sweetener product having artificial sweetener sucralose and bulking agent dextrose monohydrate.

Data set [2] can be described thus: Calorific value by Bomb calorimeter. The class given is physicochemical. How it is done:
Known sweetener compositions based on artificial sweeteners such as sucralose or Acesulfame K along with natural sugar substitute compositions including stevia, sugar, glucose and sucrose, were compared with the sweetener or the nutraceutical compositions containing glucose oxidase enzyme for their calorific values. The calorific values are determined using Bomb calorimeter.

Data set [3] can be described thus: Effect on body weight and muscle mass in type 2 diabetic patients. The class given is in vivo, human. The settings on record: type 2 diabetic patient, dose 25 gms per day. How it is done:
Six type 2 diabetic patients were randomly administered the Glucose oxidase containing sweetener composition as per the embodiment of the present invention for […], 5 patients were administered sugar and compositions containing natural sugar substitute (stevia based) based sweeteners, or artificial sweeteners based on Sucralose or Acem or compositions containing dietary fibres with saccharides, dietary fibres with sugar alcohols and dietary fibres with sugar alcohols and saccharides, the details of which are as set forth in the Table below. One patient was not given any composition. Before the onset of the study (week 0) and after 2 months, weight measurements were taken.

The test system of another data set is buccal epithelial cells. Nature of the data set: Non invasive micronucleus assay for oxidative stress in diabetic individuals. The format is in vivo, human. The settings on record: dose 40 gms (0.005 gms for the drugs). An excerpt: Known pharmaceutical/nutraceutical compositions as well as other artificial sweeteners were compared to the pharmaceutical composition including the glucose oxidase enzyme of the invention for controlling oxidative stress in diabetic individuals.
Micronucleus is a small nucleus (also known as erratic or third nucleus), present in the cytoplasm of the cell. Formation of micronuclei indicates oxidative stress and genetic damage. The micronucleus assay using scraped buccal epithelial cells is an easy and non-invasive assay to estimate oxidative stress.
The results of the Non Invasive Micronucleus Assay, using buccal epithelial cells were tabulated as follows: […]

As for `O.O=C[C@H](O)[C@@H](O)[C@H](O)[C@H](O)CO` [Dextrose monohydrate], in data set [1] (2 hrs after 75 gms in 200 ml of water, individual values, monohydrate), the “Blood Sugar After 2 hrs” value is 141 and 149 (3×) and 160 (3×) and 156 (2×) and 170 and 175 and 150 and 145 and 158 and 169 and 154 and 159 and 157 and 164 and 161. Also, the “Blood Sugar After 2 hrs, Average/20 respondents” value in data set [1] (after 2 hrs, 75 gms in 200 ml of water, average of 20 respondents) is given as “dents- 157.1”. Besides, the “Blood Sugar Initial” value in data set [1] (before drinking 75 gms in 200 ml of water, individual values, monohydrate) is 80 and 79 and 97 and 96 and 100 (2×) and 105 (2×) and 104 (2×) and 86 and 89 and 98 and 102 (2×) and 87 and 95 and 99 and 103 and 93. The “Blood Sugar Initial, Average/20 respondents” value in data set [1] (initial, average of 20 respondents) is given as “dents- 92.2”.

Take `OC[C@H]1OC(O)[C@H](O)[C@@H](O)[C@@H]1O` (stereo partly drawn) [Glucose]: the Calories/100 g in data set [2] was 400 Calories/100 g.

Consider `OC[C@H]1O[C@H](O[C@]2(CCl)O[C@H](CCl)[C@@H](O)[C@@H]2O)[C@H](O)[C@@H](O)[C@H]1Cl` [Sucralose], for which the “Glycemic Response” value in data set [1] (conclusion in words) is recorded as “respond almost in the same manner as that of Glucose”.

Regarding `OC[C@H]1O[C@@](CO)(O[C@H]2O[C@H](CO)[C@@H](O)[C@H](O)[C@H]2O)[C@@H](O)[C@@H]1O` [Sugar], the “Initial Body weight” value in data set [3] (baseline (week 0)) turned out to be 60 Kgs. Moreover, in data set [3], the “Body weight (after two months)” value is on record as 62.5 Kgs and the “Muscle mass increase in % over three months” value is recorded as “No change”. This compound also gave a Calories/100 g in data set [2] of 400 Calories/100 g. In addition, the “Oxidative stress Values (% of cells containing micronuclei) before administration” value in the data set with buccal epithelial cells (baseline) is 5.0 % of cells containing micronuclei. Also, the “Oxidative stress Values (% of cells containing micronuclei) one month after administration” value in the data set with buccal epithelial cells is reported as 7 % of cells containing micronuclei.
